Results reported in publication PMC8179679 (Chemical Science, 2021).
Where no end group is shown, it is not given here.

Assays:
[1] = system: E5-p53TAD1/MDM2 interaction; conditions: for number of translocation events, % of free E5-p53TAD1 peptide: molar ratio 1 : 3 : 5; for number of translocation events N after inhibitor addition: molar ratio 1 : 3 : 5 (peptide : MDM2 : inhibitor), 10 min-current trace
[2] = system: MDM2; conditions: method not stated; cited from earlier work
[3] = biological target: aerolysin nanopore (Aeromonas hydrophila, UniProt P09167); test: aerolysin nanopore single-channel recording of free analyte
[4] = biological target: MDM2 (residues 3–109) (Homo sapiens, UniProt Q00987); test: aerolysin nanopore detection of peptide/MDM2 interaction; assay type: binding
MDM2 (residues 3–109), sequence (Q00987 3-109): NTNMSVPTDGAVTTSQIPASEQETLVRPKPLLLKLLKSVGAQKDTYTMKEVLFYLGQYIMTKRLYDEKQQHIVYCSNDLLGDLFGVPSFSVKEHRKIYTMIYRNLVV

aerolysin nanopore, sequence (P09167 24-445 limits assumed): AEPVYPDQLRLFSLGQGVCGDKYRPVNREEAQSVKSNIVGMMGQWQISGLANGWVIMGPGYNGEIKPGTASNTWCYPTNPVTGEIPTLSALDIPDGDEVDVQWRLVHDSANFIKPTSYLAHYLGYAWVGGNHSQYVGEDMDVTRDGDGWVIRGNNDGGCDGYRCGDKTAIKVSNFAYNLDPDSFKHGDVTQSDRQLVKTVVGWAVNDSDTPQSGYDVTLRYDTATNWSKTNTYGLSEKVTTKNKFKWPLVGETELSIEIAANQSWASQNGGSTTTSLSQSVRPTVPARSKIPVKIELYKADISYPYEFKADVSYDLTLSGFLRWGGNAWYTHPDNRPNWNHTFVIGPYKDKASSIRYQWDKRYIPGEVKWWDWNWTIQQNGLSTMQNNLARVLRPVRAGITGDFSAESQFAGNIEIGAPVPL

CC(C)[C@@H](CS(=O)(=O)C(C)C)N1C(=O)[C@@](C)(CC(=O)O)C[C@H](c2cccc(Cl)c2)[C@H]1c1ccc(Cl)cc1 [AMG232]
number of translocation events, % of free E5-p53TAD1 peptide [1]: ~99.8% | number of translocation events N after inhibitor addition [1]: 1570

COc1ccc(C2=N[C@@H](c3ccc(Cl)cc3)[C@@H](c3ccc(Cl)cc3)N2C(=O)N2CCNC(=O)C2)c(OC(C)C)c1 [Nutlin-3]
number of translocation events, % of free E5-p53TAD1 peptide [1]: ~61.3% | number of translocation events N after inhibitor addition [1]: 965

CN[C@@H](C)C(=O)N[C@H](C(=O)N1CCC[C@H]1c1nc(C(=O)c2ccc(F)cc2)cs1)C1CCCCC1 [LCL161]
MDM2 binding (in words) [2]: does not bind to MDM2

EEEEESQETFSDLWKLLPEN [E5-p53TAD1]
number of nanopore events N ([3]; free E5-p53TAD1 peptide, 10 min-current trace): 1573 | dwell time of short-lived translocation / nanopore events ([3]; free peptide): < 10^2 ms | mean dwell time td ([3]; free peptide, 140 mV, single exponential fit): ~0.8 ms | Kd [4]: 1070 ± 90 nM | dwell time of extraordinarily long-lived current blockage ([4]; E5-p53TAD1/MDM2 complex, 140 mV): 0.1 s ∼ tens of min
